SMILES	melting point [°C]
CC(C(=O)O)c1cc(Cl)c([N+](=O)[O-])cc1Cl (stereo unspecified)	143
C[C@H](O)C(=O)N[C@@H]1C(=O)Nc2c(F)cccc2O[C@@H]1C	221 to 225
COc1cc(OC)c2c(=O)[nH]c(-c3ccc(OCCO)c(-c4ccc(S(C)(=O)=O)cc4)n3)nc2c1	> 300
O=S(=O)(NCCSC1c2ccccc2COc2ccc(/C=C/c3ccc4cc(F)c(F)cc4n3)cc21)C(F)(F)F (stereo unspecified)	84 to 87
COc1cc(OC)c(CC(=O)c2ccc(C(C)C)c(OS(N)(=O)=O)c2C(C)C)c(OC)c1	159 to 163
Cc1cc(C)c(C2=C(OC(=O)C(C)(C)C)CC(CC3CCOC3)CC2=O)c(C)c1 (stereo unspecified)	108 to 110
O=Cc1scc2c3ccccc3c3ccccc3c12	198 to 199
CS(=O)(=S)OCCCCC(=O)O (stereo unspecified)	61 to 62.5
CC(C)n1nc(O)ccc1=O	148
OCc1c(Cl)c(Cl)c(Cl)c(Cl)c1Cl	195 to 196
OCCc1ccc2sccc2c1	56 to 57
CS(=O)(=O)c1ccc(C(=O)NCc2ccc3c(c2)C(=O)N(C2CCC(=O)NC2=O)C3=O)nc1 (stereo unspecified)	276 to 278
CC(C)n1c(CC[C@@H](O)C[C@@H](O)CC(=O)OC(C)(C)C)c(-c2ccc(F)cc2)c(-c2ccccc2)c1C(N)=O	94 to 96
CC(=O)CCC(CCC(C)=O)(C(C)=O)C(C)=O	59
NC(=O)c1ccnc(CCCCCCOCCCCCCBr)c1	73 to 75
Cc1cc(=O)n(C2CCCCC2)n1C	99 to 100
Cc1cc(C#C[Si](C(C)C)(C(C)C)C(C)C)n(-c2ccc([N+](=O)[O-])cc2)n1	71 to 73
O=C(N[C@H]1CC[C@H](CCN2CCC(c3cccc4c3CCO4)CC2)CC1)C1CC1	208
Cc1ccc(C(C#N)Nc2ccc(S(C)(=O)=O)cc2)cc1 (stereo unspecified)	158 to 160
CC(Cl)(Cl)C(NC(=O)c1ccc(Cl)cc1)NC(=NC#N)Nc1ccccc1F (stereo unspecified)	216 to 217
Cc1cc(C(F)(C(F)(F)F)C(F)(F)F)ccc1NC1OC(=O)c2cccc(Cl)c21 (stereo unspecified)	229 to 231
COc1ccc(-c2ccnc3c(C(=O)c4cccs4)cnn23)cc1NC(=O)NC(C)C	202 to 204

SMILES	melting point [°C]
CCCc1cc(CCC)n2nc(C)c(C#N)c2n1	73 to 74
CC(C)(C)C12OOC1(c1ccc(C(=O)N3CCOCC3)c(O)c1)OCC2(C)C (stereo unspecified)	114 to 116
Cc1oc2c(-n3c(=O)cc(C(F)(F)F)n(C)c3=O)ccc(Cl)c2c1[N+](=O)[O-]	174 to 175
CCOc1cc2ncc(C#N)c(Nc3ccc(F)cc3C)c2cc1OCC	105 to 108
CNC(=NCCSCc1cnc(C)[nH]1)NC#N	141 to 142
COc1ccc(Br)c2c1C(=O)C(C=O)C2 (stereo unspecified)	76 to 78
Oc1ccc(CCC(CCc2ccc(O)cc2)(c2ccc(O)cc2)c2ccc(O)cc2)cc1	252
O=C(Nc1ccc(I)cc1)N[C@H]1C[C@H](C(=O)O)Nc2cc(Cl)cc(Cl)c21 (relative stereo)	224 to 226
O=C1NC(=O)C2(c3cc(Oc4ccc([N+](=O)[O-])cc4)c(Cl)cc3F)CCCCC12 (stereo unspecified)	126
COc1ccc(C)cc1-c1ccc(S(=O)(=O)N2c3ccccc3CC2C(=O)NCCOc2ccc(CC(=O)O)cc2)cc1 (stereo unspecified)	85 to 88
CCOCC1OC(n2cnc3c(N)ncnc32)C(O)C1O (stereo unspecified)	110 to 112
NC(=O)Cc1cccc(C(=O)c2ccc(F)cc2)c1N	184 to 186
CC1(C)CC(N2C(=O)C=CC2=O)CC(C)(C)N1	104 to 111
CC(=O)n1c(SC(F)(F)F)cc(-c2ccc(F)cc2)c1-c1ccc(F)cc1	75 to 76
CC1CCC(=NN)c2ncc(C(=O)NN)c(=O)n21 (stereo unspecified)	219 to 220
CC(=O)Nc1ccc(I)cc1F	152 to 154
CCOC(=O)C=C(c1ccc(Br)s1)c1ccc(Br)s1	69 to 70
OCc1cn(-c2ccc(Cl)c(C(F)(F)F)c2)cn1	148 to 153
COC(=O)C(=CNc1ccc(O)cc1)C(=O)C=Cc1ccc2ccccc2c1	191 to 192
CCCCCCc1cc2c(cc1OCCCC(=O)O)C(=O)CC2	88
Clc1cc2nc(NC3=NCCN3)[nH]c2cc1Cl	265 to 272

Now from value to compound:

melting point [°C]	SMILES
122	CCc1noc(-c2ccc(OCCC3CCN(c4ccc(C)nn4)CC3)cc2)n1
152	C=COC(=O)N1C[C@@H]2C(=O)CCC(c3cccc(F)c3)(c3cccc(F)c3)[C@@H]2C1 (racemic)
90 to 92	CCCCOCCOc1ccc(-c2cnc(N3CC(C)C(C)C3)c(/C=C(\C)C(=O)O)c2)cc1 (stereo unspecified)
61 to 62	CCOC(=O)CCN=c1sc2ccccc2s1
82 to 83	CC(=O)c1cccc(Oc2cccc(Cl)n2)c1
211 to 212	CN1CCN(Cc2c(-c3cc(C(C)(C)C)c(O)c(C(C)(C)C)c3)nc3n2CCS3)CC1
237 to 239	COCc1c(-c2ccc(O)cc2)oc2ccccc2c1=O
151 to 153	CCOC(=O)c1cnc(N2CCN(Cc3ccccc3)CC2)nc1O
290	Cc1c(Br)c(=O)n(C2CCCC2)c2nc(Nc3ccc(N4CCNCC4)nc3)ncc12
112 to 114	O=CC1=Cc2cc(OCc3ccccc3)ccc2OC1
151 to 152	O=C(CCc1ccccc1)N[C@H](Cc1ccc(C(F)(F)F)cc1)[C@@H](O)c1cccc(F)c1 (racemic)
133 to 134	O=c1c(-c2ccccc2)ccc2n1CCc1ccsc1-2
248 to 255	O=C(NC(Cc1ccccc1)C(=O)O)c1cc2cc(Cl)ccc2[nH]1 (stereo unspecified)
165 to 170	COc1ccccc1-n1c(=O)[nH]c2c(C(N)=O)nc(Nc3ccc(Cn4ccnc4)cc3)nc21
202 to 204	Oc1ncc(-c2ccccc2)s1
95 to 100	Clc1cncnc1NCc1ccc(OCc2ccccc2)cc1
60	Cc1nnc(NCCCN2CCN(C)CC2)c2cc3ccccn3c12
170 to 171	CC1(c2[nH]c3ccccc3c2C2=C(Cl)C(=O)C=C(Cl)C2=O)CC1
135 to 137	CCn1nc(C(=O)NC2CN(C)CCN(Cc3cccc(C)c3)C2)c2ccccc21 (stereo unspecified)
175 to 176	CCc1cc2ccccc2c(CNC(=O)c2cc(OC)c(OC)c(OC)c2)n1
115	COc1ccccc1N1CCN(CCc2ccc(OC(=O)C(C)(C)C)c3ncccc23)CC1
180 to 184	CC1=NC(=S)N=C1CCCCNC(=O)c1ccccc1
68 to 71	COc1ccc(C(CCCCC(=O)O)C2=C(C)C(=O)c3ccccc3C2=O)cc1 (stereo unspecified)
263 to 266	CC(C)(O)c1ccc(-c2cnc3[nH]c(=O)n(CCC4CCOCC4)c3n2)cc1
178 to 180	CC(=O)Nc1ccc(F)c(N2CCN(C(C)=O)CC2)n1
56 to 57	CCC(O)(c1ccc(OCc2ccccc2)cc1)c1ccc(Cl)cc1Cl (stereo unspecified)
179	CC(C)(C)OC(=O)N1CCC2(Cc3ccc(C#N)cc3)C(=O)N(c3cc(Cl)nc(Cl)c3)C(=O)N12 (stereo unspecified)
247 to 249	CCCCc1nc2cccc(C(=O)NC(C)C)c2n1Cc1ccc(-c2ccccc2-c2nnn[nH]2)cc1

From a melting point compilation (Tetko et al.; mined from patent text by program, amines drawn as free bases though some values may be those of a salt)
